Experimental data reported in patent US20240116985A1, “STAPLED PEPTIDES AND METHODS THEREOF” (priority 2020, published 2024).
In brackets after ≈: the same amount, converted by molar mass. Several values for one entry are separate records, joined by “and”; a condition that tells them apart may be missing. Identical values can stand only once. Like-named read-outs stand apart in the source and are kept apart here.

Assays:
[1] = biological target: T1, beta-catenin/TCF4 engagement (Homo sapiens, UniProt P35222); test: Nano-BRET target engagement assay (B-cat-Halo & TCF4-Luc in HEK293 cells); format: cell-based
T1 construct: expressed in transfected cells; host or cells: HEK293
T1 sequence (P35222 1-781): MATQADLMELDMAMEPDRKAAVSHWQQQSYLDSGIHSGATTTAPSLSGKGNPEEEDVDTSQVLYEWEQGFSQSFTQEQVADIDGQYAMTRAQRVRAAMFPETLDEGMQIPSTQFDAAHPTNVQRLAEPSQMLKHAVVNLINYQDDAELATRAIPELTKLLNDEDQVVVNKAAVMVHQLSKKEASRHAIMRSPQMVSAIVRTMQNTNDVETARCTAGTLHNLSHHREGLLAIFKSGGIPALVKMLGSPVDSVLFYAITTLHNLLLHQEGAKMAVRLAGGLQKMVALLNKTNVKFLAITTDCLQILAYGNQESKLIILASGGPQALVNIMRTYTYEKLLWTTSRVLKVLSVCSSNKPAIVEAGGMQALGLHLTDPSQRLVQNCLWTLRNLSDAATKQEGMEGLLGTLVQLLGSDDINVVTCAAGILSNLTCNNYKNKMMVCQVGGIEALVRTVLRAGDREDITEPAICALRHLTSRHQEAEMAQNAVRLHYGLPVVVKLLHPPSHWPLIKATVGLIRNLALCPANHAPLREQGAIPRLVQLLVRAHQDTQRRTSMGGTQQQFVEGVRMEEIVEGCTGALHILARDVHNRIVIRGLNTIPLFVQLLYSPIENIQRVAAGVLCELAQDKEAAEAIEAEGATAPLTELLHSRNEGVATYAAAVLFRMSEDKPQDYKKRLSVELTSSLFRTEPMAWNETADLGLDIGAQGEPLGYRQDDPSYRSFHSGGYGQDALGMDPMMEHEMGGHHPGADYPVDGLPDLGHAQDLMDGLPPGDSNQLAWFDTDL

[2] = Solubility in PBS; format: physicochemical
Outline: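 HPLC quantitation of peptide remaining in the PBS supernatant after ultracentrifugation, referenced to a 50 μM solution in DMSO.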

[3] = tested on: TCF/LEF luciferase Reporter in DLD1 cells; test: TCF reporter assay (DLD1 TCF/LEF luciferase reporter, Bright-Glo); format: cell-based; settings: for DLD1 TCF c2 BrightGlo % Inhibition: replicates
Outline: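 DLD1 cells stably carrying a TCF/LEF luciferase reporter were plated at 5000 cells/well in RPMI + 4% FBS and treated overnight with a 1:2 compound dilution series. Bright-Glo luminescence read on day 3; viability by CellTiter-Glo. Absolute IC50 determined.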

[4] = biological target: T2, full-length beta-Catenin (Uniprot ID P35222) (Homo sapiens, UniProt P35222); test: Fluorescence polarization IC50 (beta-catenin / 5FAM-TCF4 10-53 competition); format: binding
T2 construct: 10 nM full-length beta-Catenin (Uniprot ID P35222)
T2 sequence (P35222 1-781): T1 sequence (P35222 1-781)

[5] = CHI Log D procedure; format: physicochemical; settings: for CHI Log D: pH 7.4; for chromatographic logD: pH 7.4, CHI Log D
[6] = absolute IC50, read-out: NanoBRET Abs IC50
[7] = absolute IC50, read-out: DLD1 reporter assay Abs IC50
[8] = first dose = 20 uM (plate map), 20 µM
[9] = read-out: DLD1 4% Abs IC50, DLD1 4%
[10] = third dose = 5 uM (plate map), 5 µM
[11] = fluorescence polarization, beta-catenin, read-out: FP EC50
[12] = fluorescence polarization, read-out: beta-Catenin FP IC50
[13] = Peptide + ST-Protein (SAINT-Protein lipid)

IC50 [1, 6]	IC50 ([1]; read-out: NanoBRET Abs IC50)	Solubility [2]	IC50 [3, 7]	IC50 [3, 9]	IC50 [4, 11]	IC50 ([4]; read-out: beta-Catenin FP IC50)	CHI Log D [5]	IC50 ([1]; read-out: NanoBRET IC50)	chromatographic logD [5]	SMILES	further results
26.3 µM	26.3 µM	30 µM (≈ 58.8 µg/mL)	11.1 µM	5.6 µM	0.026 µM	0.026 µM	2.941			CC(=O)N1CCC[C@]12CC=CCCCC1(CCCC=CCCCCCC[C@@](C)(C(=O)N[C@@H](Cc3ccccc3Cl)C(=O)N[C@@H](Cc3csc4ccccc34)C(=O)N[C@@H](CCO)C(N)=O)NC(=O)[C@H](CO)NC(=O)[C@H](Cc3ccccc3)NC(=O)[C@H](C)NC(=O)[C@H](C)NC(=O)[C@H](CN(CC(=O)O)CC(F)(F)F)NC(=O)[C@H](CC(=O)O)NC1=O)NC(=O)[C@H](CC(C)(C)C)NC(=O)[C@H](CC(=O)O)NC2=O (single isomer, unassigned) [I-999, Ac-PL3-Asp-Npg-B5-Asp-TfeGA-Ala-Ala-Phe-Ser-S8-2C1F-BztA-Hse-NH2]	DLD1 TCF c2 BrightGlo % Inhibition [3, 8]: 63.2% and 71.4% and 68.9%; DLD1 TCF c2 BrightGlo % Inhibition ([3]; 0.625 µM): 7.7% and 8.8% and 6.4%; DLD1 TCF c2 BrightGlo % Inhibition ([3]; 1.25 µM): 1.7% and 8.0% and 4.0%; DLD1 TCF c2 BrightGlo % Inhibition ([3]; 2.5 µM): 14.3% and 11.9% and 4.4%; DLD1 TCF c2 BrightGlo % Inhibition ([3]; 10 µM): 42.0% and 49.2% and 49.7%; DLD1 TCF c2 BrightGlo % Inhibition [3, 10]: 18.2% and 32.5% and 23.9%
4.9 µM		50 µM (≈ 94.2 µg/mL)					2.259	5.6 µM		CC(=O)N1CCC[C@]12CC=CCCCC1(CCCC=CCCCCCC[C@@](C)(C(=O)N[C@@H](Cc3ccccc3)C(=O)N[C@@H](Cc3csc4ccccc34)C(=O)N[C@@H](CCC(N)=O)C(N)=O)NC(=O)[C@H](CCC(N)=O)NC(=O)[C@H](Cc3ccccc3)NC(=O)[C@H](C)NC(=O)[C@H](C)NC(=O)[C@H](CCC(=O)O)NC(=O)[C@H](CC(=O)O)NC1=O)NC(=O)[C@H](CC(C)C)NC(=O)[C@H](CC(=O)O)NC2=O (stereo partly drawn) [I-505, Ac-PL3-Asp-Leu-B5-Asp-Glu-Ala-Ala-Phe-Gln-S8-Phe-BztA-Gln-NH2]	IC50 ([1]; Abs IC50, read-out: NanoBRET Abs IC50): 4.9 µM; IC50 ([3]; Abs IC50, read-out: DLD1 reporter assay Abs IC50): 10.8 µM; IC50 ([3]; read-out: DLD1 4% Abs IC50, DLD1 4%, absolute IC50): 9.4 µM; IC50 [4, 12]: 0.023 µM; IC50 ([4]; read-out: FP EC50): 0.023 µM
	9.6 µM			9 µM		0.005 µM		9 µM	2.03	CC(=O)N1CCC[C@]12CC=CCCCC1(CCCC=CCCCOC(=O)N3CC[C@@](C(=O)N[C@@H](Cc4ccsc4)C(=O)N[C@@H](Cc4csc5ccccc45)C(=O)N[C@@H](CCC(N)=O)C(N)=O)(C3)NC(=O)[C@H](CCO)NC(=O)[C@H](Cc3ccccc3)NC(=O)[C@H](C)NC(=O)[C@H](C)NC(=O)[C@H](CC(=O)O)NC(=O)[C@H](CC(=O)O)NC1=O)NC(=O)[C@H](CC(C)(C)C)NC(=O)[C@H](CC(=O)O)NC2=O (stereo partly drawn) [I-803, Ac-PL3-Asp-Npg-B5-Asp-Asp-Ala-Ala-Phe-Hse-PyrS2-3Thi-BztA-Gln-NH2]	Solubility ([2]; Solubility (uM)): 40 µM (≈ 76.2 µg/mL)
	3.2 µM		3.4 µM			0.005 µM		5.3 µM	2.27	CC(=O)N1CCC[C@]12CC=CCCCC1(CCCC=CCCCOC(=O)N3CC[C@@](C(=O)N[C@@H](Cc4ccsc4)C(=O)N[C@@H](Cc4csc5ccccc45)C(=O)N[C@@H](CCC(N)=O)C(N)=O)(C3)NC(=O)[C@H](Cc3ccccc3)NC(=O)[C@H](Cc3ccccc3)NC(=O)[C@H](C)NC(=O)[C@H](C)NC(=O)[C@H](CC(=O)O)NC(=O)[C@H](CC(=O)O)NC1=O)NC(=O)[C@H](CC(C)(C)C)NC(=O)[C@H](CC(=O)O)NC2=O (stereo partly drawn) [I-807, Ac-PL3-Asp-Npg-B5-Asp-Asp-Ala-Ala-Phe-Phe-PyrS2-3Thi-BztA-Gln-NH2]	Solubility ([2]; Solubility (uM)): 24 µM (≈ 46.8 µg/mL)
		10 µM (≈ 19.7 µg/mL)		10.1 µM	1.38 µM	0.009 µM	1.95			CCN(CC(=O)O)C[C@@H]1NC(=O)[C@H](CC(=O)O)NC(=O)C2(CCCC=CCCCOC(=O)N3CC[C@@](C(=O)N[C@@H](Cc4ccsc4)C(=O)N[C@@H](Cc4csc5ccccc45)C(=O)N[C@@H](CCC(N)=O)C(N)=O)(C3)NC(=O)[C@H](CC(C)C)NC(=O)[C@H](Cc3ccccc3)NC(=O)[C@H](C)NC(=O)[C@H](C)NC1=O)CCCC=CC[C@]1(CCCN1C(C)=O)C(=O)N[C@@H](CC(=O)O)C(=O)N[C@@H](CC(C)(C)C)C(=O)N2 (stereo partly drawn) [I-973, Ac-PL3-Asp-Npg-B5-Asp-EtGA-Ala-Ala-Phe-Leu-PyrS2-3Thi-BztA-Gln-NH2]	
> 20 µM			> 20 µM		5.53 µM	7.22 µM			1.89	CC(=O)N1CCC[C@]12CC=CCCCC1(CCCC=CCCCOC(=O)N3CC[C@@](C(=O)N[C@@H](CC(=O)O)C(=O)N[C@@H](Cc4csc5ccccc45)C(=O)N[C@@H](CCC(N)=O)C(N)=O)(C3)NC(=O)[C@H](CC(N)=O)NC(=O)[C@H](Cc3ccccc3)NC(=O)[C@H](C)NC(=O)[C@H](C)NC(=O)[C@H](CN(CC(=O)O)CC(F)(F)F)NC(=O)[C@H](Cc3ccsc3)NC1=O)NC(=O)[C@H](CC(C)(C)C)NC(=O)[C@H](CC(=O)O)NC2=O (stereo partly drawn) [I-1001, Ac-PL3-Asp-Npg-B5-3Thi-TfeGA-Ala-Ala-Phe-Asn-PyrS2-Asp-BztA-Gln-NH2]	Nano-BRET Abs IC50 (uM) [1, 13]: inactive; Nano-BRET Abs IC50 (uM) ([1]; Peptide only): inactive; TCF Reporter Assay Abs IC50 (uM) [3, 13]: inactive; TCF Reporter Assay Abs IC50 (uM) ([3]; Peptide only): inactive; DLD1 TCF c2 BrightGlo % Inhibition [3, 8]: −1.2% and 7.5% and 3.5%; DLD1 TCF c2 BrightGlo % Inhibition ([3]; 0.625 µM): −1.5% and 9.3% and 4.5%; DLD1 TCF c2 BrightGlo % Inhibition ([3]; 1.25 µM): −7.0% and −2.8% and 6.1%; DLD1 TCF c2 BrightGlo % Inhibition ([3]; 2.5 µM): −8.0% and −7.6% and −5.0%; DLD1 TCF c2 BrightGlo % Inhibition ([3]; 10 µM): −3.6% and −4.8% and −7.4%; DLD1 TCF c2 BrightGlo % Inhibition [3, 10]: −6.7% (2×) and −0.7%
29.8 µM			> 20 µM			0.009 µM			2.6	CC(=O)N1CCC[C@]12CC=CCCCC1(CCCC=CCCCOC(=O)N3CC[C@@](C(=O)N[C@@H](Cc4ccccc4Cl)C(=O)N[C@@H](Cc4csc5ccccc45)C(=O)N[C@@H](CCC(N)=O)C(N)=O)(C3)NC(=O)[C@H](CC(N)=O)NC(=O)[C@H](Cc3ccccc3)NC(=O)[C@H](CC(C)C)NC(=O)[C@H](C)NC(=O)[C@H](CN(CC(=O)O)CC(F)(F)F)NC(=O)[C@H](CC(=O)O)NC1=O)NC(=O)[C@H](CC(C)(C)C)NC(=O)[C@H](CC(=O)O)NC2=O (stereo partly drawn) [I-1002, Ac-PL3-Asp-Npg-B5-Asp-TfeGA-Ala-Leu-Phe-Asn-PyrS2-2C1F-BztA-Gln-NH2]	
> 20 µM			> 20 µM			0.015 µM			3.09	CC(=O)N1CCC[C@]12CC=CCCCC1(CCCC=CCCCCCC[C@@](C)(C(=O)N[C@@H](Cc3ccccc3Cl)C(=O)N[C@@H](Cc3csc4ccccc34)C(=O)N[C@@H](CCC(N)=O)C(N)=O)NC(=O)[C@H](CC(C)C)NC(=O)[C@H](Cc3ccccc3)NC(=O)[C@H](C)NC(=O)[C@H](C)NC(=O)[C@H](CC(=O)O)NC(=O)[C@H](CC(=O)O)NC1=O)NC(=O)[C@H](CC(C)(C)C)NC(=O)[C@H](CC(=O)O)NC2=O (stereo partly drawn) [I-1095, Ac-PL3-Asp-Npg-B5-Asp-Asp-Ala-Ala-Phe-Leu-S8-2C1F-BztA-Gln-NH2]	
4.2 µM		10 µM (≈ 20.1 µg/mL)								CC(=O)N1CCC[C@]12CC=CCCCC1(CCCC=CCCCOC(=O)N3CC[C@@](C(=O)N[C@@H](Cc4ccccc4C(F)(F)F)C(=O)N[C@@H](Cc4csc5ccccc45)C(=O)N[C@@H](CCC(N)=O)C(N)=O)(C3)NC(=O)[C@H](Cc3ccccc3)NC(=O)[C@H](Cc3ccccc3)NC(=O)[C@H](C)NC(=O)[C@H](C)NC(=O)[C@H](CC(=O)O)NC(=O)[C@H](CC(=O)O)NC1=O)NC(=O)[C@H](CC(C)(C)C)NC(=O)[C@H](CC(=O)O)NC2=O (stereo partly drawn) [I-1319, Ac-PL3-Asp-Npg-B5-Asp-Asp-Ala-Ala-Phe-Phe-PyrS2-2F3MeF-BztA-Gln-NH2]	IC50 ([3]; read-out: DLD1 4% Abs IC50, DLD1 reporter, 4%, absolute IC50): 2.1 µM; IC50 [4, 12]: 0.01 µM
